Measurements taken from patent US9140692B1, “Methods of identifying glycopeptides recognized by disease-associated auto-antibodies” (Glycozym, Inc., priority 2010, dated 2015).
“Also recorded” adds a separate entry of the source.

tested on: human IgG antibodies from cancer patients; assay: Microarray screening of the larger GalNAc O-glycopeptide library (Table III) with human cancer and control sera; assay type: binding; details: FIG. 6; sera at 1:20 dilution, anti-human-IgG Cy3
From the text: FIG. 6A: glycopeptides 889 (SEQ ID NO: 134), 275a (SEQ ID NO: 86), and 585 (SEQ ID NO: 109). FIG. 6B: glycopeptides 893 (SEQ ID NO: 135), 931-C3 (SEQ ID NO: 146), and 852-C3 (SEQ ID NO: 145). FIG. 6C: gycopeptides 873 (SEQ ID NO: 132) and 690 (SEQ ID NO: 116). The following human sera were used for FIGS. 6A and 6B: 32 ovarian cancer (O), 38 breast cancer (B), 54 colon cancer (C), 17 lung cancer (L), as well as 145 normal sera (N) (Asterand Corp). The following sera were used for FIG. 6C: 32 ovarian cancer (O), 38 breast cancer […], 54 colon cancer (C), 42 lung cancer (L), 52 pancreactic cancer (Pn), 35 prostatic cancer (Pr), 8 inflammatory disease (In), 8 benign controls (Bn), and 145 healthy controls (N). Sera were screened at 1:20 dilution. Anti-human-IgG conjugated to Cy3 was used as the secondary detection unit and slides were scanned with a GenePix 4200AL Microarray Scanner.
A larger library of GalNAc O-glycopeptides designed with GalNAc linked to serine or threonine at position 12 in 20-mer peptides was produced as described in Example 1. Peptides were selected among cell membrane and secreted human proteins that contain serine and threonine residues that are predicted to be O-glycosylated by the NetOGlyc algorithm (Julenius et al. 2005). A total of 960 GalNAc glycopeptides were synthesized at 0.5 mg scale (Sigma) and printed on microarray hydrogel slides (Schott Nexterion) as described in Example 1. Slides were reacted with human cancer sera (ovarian, breast, colon, lung, pancreas, prostate, 235 total sera) and control sera (145 healthy, 20 inflammatory, 20 benign tumor). Glycopeptides preferentially reactive with human IgG antibodies from cancer patients compared to controls were selected for resynthesis at 5 mg scale with amidated C-terminus (New England Peptide (Gardner, Mass.) (Table III). Resynthesized glycopeptides were reprinted on microarray slides at 50 μM and reacted with human cancer sera (Total 286 sera: 32 ovarian cancer (O), 38 breast cancer (B), 54 colon cancer (C), 17 lung cancer (L), and 145 age and sex matched control normal sera as described in Example 1. Table III lists glycopeptides exclusively or preferentially reactive with human IgG from cancer patients compared to controls and examples of reactivities are shown in FIG. 6.
Since IgG antibodies reactive with glycopeptides epitopes recognize both the peptide sequence in close proximity to the O-glycan (i.e., one to five or even eighth residues N- and C-terminal of the O-glycan) as well as the O-glycan structure, it is clear that different glycoforms of one glycopeptide may be recognized by different IgG antibodies and these antibodies may be found in different cancer patients. In this Example, GalNAc-glycopeptides from MUC1 and MUC4 were also produced as the core 3 GlcNAcβ1-3GalNAcα1-O-Ser/Thr glycoform with a recombinant core 3 synthase as described in Example 1.

Row | Substance | reactivity with IgG from newly diagnosed cancer patients compared to normal control sera
1 | H2N-ASRYNLTISDVSVSDVPFPF-amide (H-ASRYNLTISDVSVSDVPFPF-NH2; also: O-GalNAc glycopeptide, sites not given here) [Peptide 893] | reactive with IgG from newly diagnosed cancer patients
2 | H2N-HDVETQFNQYKTEAASRYNL-amide (H-HDVETQFNQYKTEAASRYNL-NH2; also: O-GalNAc glycopeptide, sites not given here) [Peptide 889] | reactive with IgG from newly diagnosed cancer patients
3 | H2N-LAKMYYSAVEPTKDIFTGLI-amide (H-LAKMYYSAVEPTKDIFTGLI-NH2; also: O-GalNAc glycopeptide, sites not given here) [Peptide 275a] | reactive with IgG from newly diagnosed cancer patients
4 | H2N-PGTSTTPSQPNSAGVQDTEM-amide (H-PGTSTTPSQPNSAGVQDTEM-NH2; also: O-GalNAc glycopeptide, sites not given here) [Peptide 690] | reactive with IgG from newly diagnosed cancer patients
5 | H2N-SLASQATDIFST[GlcNAc] VPPTPPSI-amide [Peptide 931-C3] | reactive with IgG from newly diagnosed cancer patients
6 | H2N-TDCGGPKDHPLTCDDPRFQA-amide (H-TDCGGPKDHPLTCDDPRFQA-NH2; cysteine pairing not given here; also: O-GalNAc glycopeptide, site not shown) [Peptide 585] | reactive with IgG from newly diagnosed cancer patients
7 | H2N-TKTDASSTHHSTVPPLTSSN-amide (H-TKTDASSTHHSTVPPLTSSN-NH2; also: O-GalNAc glycopeptide, sites not given here) [Peptide 873] | reactive with IgG from newly diagnosed cancer patients
8 | H2N-VPVTRPALGSTT[GlcNAc] PPAHDVTS-amide (H-VPVTRPALGSTTPPAHDVTS-NH2; not fully specified (residue 12)) [Peptide 852-C3] | reactive with IgG from newly diagnosed cancer patients

same assay, conditions: resynthesized glycopeptides printed at 50 μM; cancer sera and 145 control normal sera

Row | Substance | reactivity with human IgG from cancer patients compared to controls
9 | H2N-SLASQATDIFST[GlcNAc] VPPTPPSI-amide [Peptide 931-C3] | exclusively recognized by IgG antibodies in sera from cancer patients
10 | H2N-VPVTRPALGSTT[GlcNAc] PPAHDVTS-amide (H-VPVTRPALGSTTPPAHDVTS-NH2; not fully specified (residue 12)) [Peptide 852-C3] | exclusively recognized by IgG antibodies in sera from cancer patients

tested on: human IgG antibodies (cancer-associated auto-antibodies in serum); assay: Glycopeptide microarray screening of the 96 paired peptide/GalNAc-glycopeptide library with human sera; assay type: binding; details: serum of newly diagnosed prostate cancer patient #762, 1:25 dilution, labeled anti-human IgG; FIG. 2
From the text: A panel of human sera was obtained from CHTN (Cooperative Human Tissue Network) and Asterand Inc., under the guidelines of approved agreements by the providers. Sera obtained were from control individuals (“normal”) (n=31) and from newly diagnosed cancer patients (n=147) with pancreatic, breast, colon, lung, prostate or ovary primary cancers. Briefly, for cancer sera, all blood samples were obtained on or near date of diagnosis, and serum was processed immediately, flash frozen and stored at −70° C. until shipment. Serum samples received from the providers as frozen aliquots generally of 1-2 mL were brought to room temperature, vortexed and distributed into 20-100 μL aliquots in closeable Eppendorf tubes (vWR) (pre-labeled), and immediately frozen and stored at −70° C. until use.
Glycopeptides (20-mers with and without a single GalNAc residue at position 12) and control structures (corresponding unglycosylated peptides) were printed on Corning (Corning, N.Y.), Scienion (Germany) or Schott Nexterion® Slide H or Schott Nexterion® Slide H MPX 16 (Schott AG, Mainz, Germany) by JPT (Germany). Triplicates or quadruplicates of all compounds were printed at optimal concentrations (1-50 μM) or 50× excess relative to scale of synthesis for spot-synthesized glycopeptides printed without purification. After printing, slides were incubated for 1 hour (h) in a humidified hybridization chamber with 70-100% relative humidity and stored until use at 4° C. Unspotted slide areas were blocked for 1 h with 25 mM ethanolamine in 100 mM sodium borate pH 8.5. If an enzyme step was needed either to increase sites of GaLNac attachments in peptides or extend O-glycans to T, STn, core 3 or other structures, addition of the enzyme reaction mixture in 25-35 μL was made in appropriate wells and the slide incubated at 37° C. for 1 h, after which it was washed in PBS/0.05% Tween and then PBS, and then spun dry.
Human sera (usually diluted 1:25), monoclonal antibodies, lectins and the like were added in 25 μL and the slide left at room temperature for 2 h in a moist, humid chamber after which it was washed as above and spun dry (if no superstructure). Secondary antibodies were added at appropriate concentrations (for human sera, usually 1:1500 for anti-human IgG with a Cy3 chromophore). In some cases, for some controls, lectin-Cy3 was used directly as final step. The final step was washing as above, with a brief de-ionized water wash and the slide spun dry for scanning Analysis was made on a GenePix 4200AL Scanner at PMT 400 and power mode 10-50. Data were analyzed and plotted using Microsoft Excel.
Glycopeptides (20-mers with and without a single GalNAc residue at position 12) were printed in triplicates (horizontal) on Scineon 16-well slides by JPT (Germany) and bound human IgG antibodies detected by a labeled secondary anti-human IgG antibody. FIG. 2 illustrates examples of reactivities of serum (1:25 dilution) from a newly diagnosed prostate cancer patient (#762 in Panel A) and a normal control serum from a healthy individual (#174 in Panel B) on the library of 96 paired peptides/GalNAc-glycopeptides as designated in Table II. Candidate cancer-associated IgG antibodies identified in the cancer serum directed to GalNAc glycopeptide epitopes are indicated by open circles labeled 20/21, 62/63, and 86/87 for the paired peptide and GalNAc glycopeptides, respectively. […]
FIG. 4 illustrates results of screening 147 cancer sera and 31 normal sera on the glycopeptide pair #62/63. FIG. 5 illustrates results of screening 147 cancer sera and 31 normal sera on the glycopeptide pair #86/87.

Row | Substance | reactivity of serum IgG antibodies with printed peptide/GalNAc-glycopeptide
11 | SESFPHPGFNMSLLENHTRQ [Peptide 86, derived from KLK1] | do not react; also recorded: not the corresponding peptide
12 | SESFPHPGFNMSLLENHTRQ [Peptide 87, derived from KLK1] | specifically reacting; also recorded: labels
13 | SHHSDESDELVTDFPTDLPA [Peptide 20, derived from SPP1] | do not react; also recorded: not the corresponding peptide
14 | SHHSDESDELVTDFPTDLPA [Peptide 21, derived from SPP1] | specifically reacting; also recorded: labels
15 | TPTPKEKPEAGTYSVNNGND [Peptide 62, derived from LAMP2] | do not react; also recorded: not the corresponding peptide
16 | TPTPKEKPEAGTYSVNNGND [Peptide 63, derived from LAMP2] | specifically reacting; also recorded: labels
